{"source": "patent US6525001B1", "about": "“Substituted pyrimidine and pyridine herbicides” (Mid-American Commercialization Corporation, priority 1997, dated 2003)", "type_in_all_cases": "in vivo", "key": {"[1]": {"tested_on": "corn (Zea mays)", "assay": "Test C", "set-up": "key: 0 was no effect; 100 was complete control", "settings": "PREEMERGENCE"}, "[2]": {"tested_on": "field bindweed (Convolvulus arvensis)", "assay": "Test C", "set-up": "key: 0 was no effect; 100 was complete control", "settings": "PREEMERGENCE"}, "[3]": {"tested_on": "lambsquarters (Chenopodium album)", "assay": "Test C", "set-up": "key: 0 was no effect; 100 was complete control", "settings": "PREEMERGENCE"}, "[4]": {"tested_on": "soybean (Glycine max)", "assay": "Test C", "set-up": "key: 0 was no effect; 100 was complete control", "settings": "PREEMERGENCE"}, "[5]": {"tested_on": "downy brome (Bromus tectorum)", "assay": "Test D", "settings": "PREEMERGENCE, Rate 250 g/ha"}, "[6]": {"tested_on": "green foxtail (Setaria viridis)", "assay": "Test D", "set-up": "key: 0 is no effect; 100 is complete control", "settings": "PREEMERGENCE"}, "[7]": {"tested_on": "jointed goatgrass (Aegilops cylindrica)", "assay": "Test D", "set-up": "key: 0 is no effect", "settings": "PREEMERGENCE"}, "[8]": {"tested_on": "lambsquarters (Chenopodium album)", "assay": "Test D", "settings": "PREEMERGENCE"}, "[9]": {"tested_on": "redroot pigweed (Amaranthus retroflexus)", "assay": "Test D", "set-up": "key: 0 is no effect; 100 is complete control", "settings": "PREEMERGENCE"}, "[10]": {"tested_on": "scentless chamomile (Matricaria inodora)", "assay": "Test D", "settings": "PREEMERGENCE"}, "[11]": {"tested_on": "winter wheat (Triticum aestivum)", "assay": "Test D", "set-up": "key: 0 is no effect", "settings": "PREEMERGENCE"}, "[12]": {"tested_on": "wild oat (Avena fatua)", "assay": "Test D", "set-up": "key: 0 is no effect; 100 is complete control", "settings": "PREEMERGENCE"}, "[13]": {"tested_on": "windgrass (Apera spica-venti)", "assay": "Test D", "settings": "PREEMERGENCE"}, "[14]": {"tested_on": "winter barley (Hordeum vulgare)", "assay": "Test D", "set-up": "key: 0 is no effect", "settings": "PREEMERGENCE"}}}
{"smiles": "Cc1cnc(-c2ccc(C(F)(F)F)cc2)nc1C(Cl)c1cccc(C(F)(F)F)c1", "note": "(racemic) [Compound 21]", "values": [{"measurement": "Plant response rating, Corn", "setting": "[1]; Rate 35 g/ha", "result": 0}, {"measurement": "Plant response rating, Corn", "setting": "[1]; Rate 70 g/ha", "result": 0}, {"measurement": "Plant response rating, Corn", "setting": "[1]; Rate 140 g/ha", "result": 0}, {"measurement": "Plant response rating, Field bindweed", "setting": "[2]; Rate 70 g/ha", "result": 40}, {"measurement": "Plant response rating, Field bindweed", "setting": "[2]; Rate 140 g/ha", "result": 40}, {"measurement": "Plant response rating, Lambsquarters", "setting": "[3]; Rate 35 g/ha", "result": 0}, {"measurement": "Plant response rating, Lambsquarters", "setting": "[3]; Rate 70 g/ha", "result": 5}, {"measurement": "Plant response rating, Lambsquarters", "setting": "[3]; Rate 140 g/ha", "result": 90}, {"measurement": "Plant response rating, Soybean", "setting": "[4]; Rate 35 g/ha", "result": 0}, {"measurement": "Plant response rating, Soybean", "setting": "[4]; Rate 70 g/ha", "result": 0}, {"measurement": "Plant response rating, Soybean", "setting": "[4]; Rate 140 g/ha", "result": 5}]}
{"smiles": "CCc1cnc(-c2ccc(C(F)(F)F)cc2)nc1Cc1cccc(C(F)(F)F)c1", "note": "[Compound 22]", "values": [{"measurement": "Plant response rating, Downy brome", "setting": "[5]", "result": 10}, {"measurement": "Plant response rating, Green foxtail", "setting": "[6]; Rate 62 g/ha", "result": 10}, {"measurement": "Plant response rating, Green foxtail", "setting": "[6]; Rate 125 g/ha", "result": 100}, {"measurement": "Plant response rating, Green foxtail", "setting": "[6]; Rate 250 g/ha", "result": 100}, {"measurement": "Plant response rating, Jointed goatgra", "setting": "[7]; Rate 62 g/ha", "result": 0}, {"measurement": "Plant response rating, Jointed goatgra", "setting": "[7]; Rate 125 g/ha", "result": 20}, {"measurement": "Plant response rating, Jointed goatgra", "setting": "[7]; Rate 250 g/ha", "result": 10}, {"measurement": "Plant response rating, Lambsquarters", "setting": "[8]; Rate 62 g/ha", "result": 60}, {"measurement": "Plant response rating, Lambsquarters", "setting": "[8]; Rate 125 g/ha", "result": 70}, {"measurement": "Plant response rating, Lambsquarters", "setting": "[8]; Rate 250 g/ha", "result": 70}, {"measurement": "Plant response rating, Redroot pigweed", "setting": "[9]; Rate 62 g/ha", "result": 60}, {"measurement": "Plant response rating, Redroot pigweed", "setting": "[9]; Rate 125 g/ha", "result": 100}, {"measurement": "Plant response rating, Redroot pigweed", "setting": "[9]; Rate 250 g/ha", "result": 70}, {"measurement": "Plant response rating, Scentless chamo", "setting": "[10]; Rate 62 g/ha", "result": 60}, {"measurement": "Plant response rating, Scentless chamo", "setting": "[10]; Rate 125 g/ha", "result": 70}, {"measurement": "Plant response rating, Scentless chamo", "setting": "[10]; Rate 250 g/ha", "result": 70}, {"measurement": "Plant response rating, Wheat (winter)", "setting": "[11]; Rate 62 g/ha", "result": 0}, {"measurement": "Plant response rating, Wheat (winter)", "setting": "[11]; Rate 125 g/ha", "result": 10}, {"measurement": "Plant response rating, Wheat (winter)", "setting": "[11]; Rate 250 g/ha", "result": 5}, {"measurement": "Plant response rating, Wild oat", "setting": "[12]; Rate 62 g/ha", "result": 0}, {"measurement": "Plant response rating, Wild oat", "setting": "[12]; Rate 125 g/ha", "result": 30}, {"measurement": "Plant response rating, Wild oat", "setting": "[12]; Rate 250 g/ha", "result": 30}, {"measurement": "Plant response rating, Windgrass", "setting": "[13]; Rate 62 g/ha", "result": 20}, {"measurement": "Plant response rating, Windgrass", "setting": "[13]; Rate 125 g/ha", "result": 70}, {"measurement": "Plant response rating, Windgrass", "setting": "[13]; Rate 250 g/ha", "result": 30}, {"measurement": "Plant response rating, Barley (winter)", "setting": "[14]; Rate 62 g/ha", "result": 0}, {"measurement": "Plant response rating, Barley (winter)", "setting": "[14]; Rate 125 g/ha", "result": 20}, {"measurement": "Plant response rating, Barley (winter)", "setting": "[14]; Rate 250 g/ha", "result": 10}]}
{"smiles": "Cc1cnc(-n2ccc(C(F)(F)F)n2)nc1Cc1cccc(OC(F)(F)F)c1", "note": "[Compound 42]", "values": [{"measurement": "Plant response rating, Corn", "setting": "[1]; Rate 35 g/ha", "result": 5}, {"measurement": "Plant response rating, Corn", "setting": "[1]; Rate 70 g/ha", "result": 5}, {"measurement": "Plant response rating, Corn", "setting": "[1]; Rate 140 g/ha", "result": 5}, {"measurement": "Plant response rating, Field bindweed", "setting": "[2]; Rate 35 g/ha", "result": 95}, {"measurement": "Plant response rating, Field bindweed", "setting": "[2]; Rate 70 g/ha", "result": 100}, {"measurement": "Plant response rating, Field bindweed", "setting": "[2]; Rate 140 g/ha", "result": 100}, {"measurement": "Plant response rating, Lambsquarters", "setting": "[3]; Rate 35 g/ha", "result": 85}, {"measurement": "Plant response rating, Lambsquarters", "setting": "[3]; Rate 70 g/ha", "result": 100}, {"measurement": "Plant response rating, Lambsquarters", "setting": "[3]; Rate 140 g/ha", "result": 100}, {"measurement": "Plant response rating, Soybean", "setting": "[4]; Rate 35 g/ha", "result": 0}, {"measurement": "Plant response rating, Soybean", "setting": "[4]; Rate 70 g/ha", "result": 5}, {"measurement": "Plant response rating, Soybean", "setting": "[4]; Rate 140 g/ha", "result": 35}]}
